Measurements: PMC1175996, “Guanine-nucleotide exchange on ribosome-bound elongation factor G initiates the translocation of tRNAs” (Journal of Biology, 2005)

Legend:
[1] = target: T1, EF-G on 70S ribosome complexes (preT / postTerm) (Escherichia coli, UniProt P0A6M8); test: nitrocellulose filtration of ribosome-bound EF-G•[3H]-GDPNP; assay type: binding; settings: labelled compound; 2 μM EF-G; 92 nM postTerm or naked 70S ribosomes; 1 μM [3H]-GDPNP; 37°C
T1 construct: gene fusA

[2] = target: T2, EF-G (free elongation factor G) (Escherichia coli, UniProt P0A6M8); test: nitrocellulose filtration, Scatchard plot; assay type: binding
T2 construct: gene fusA; purified EF-G, free in solution (no ribosome)

[3] = target: T1, EF-G on 70S ribosome complexes (preT / postTerm); test: translocation rate by RF2-dependent fMet-Ile release, EF-G recycling; assay type: biochemical; settings: read-out: I50
[4] = target: T2, EF-G (free elongation factor G); test: nitrocellulose filtration, chase of [3H]-GDP by purified unlabelled GTP; assay type: binding; settings: read-out: KGTP

T1 sequence (P0A6M8 2-704, one chain of several): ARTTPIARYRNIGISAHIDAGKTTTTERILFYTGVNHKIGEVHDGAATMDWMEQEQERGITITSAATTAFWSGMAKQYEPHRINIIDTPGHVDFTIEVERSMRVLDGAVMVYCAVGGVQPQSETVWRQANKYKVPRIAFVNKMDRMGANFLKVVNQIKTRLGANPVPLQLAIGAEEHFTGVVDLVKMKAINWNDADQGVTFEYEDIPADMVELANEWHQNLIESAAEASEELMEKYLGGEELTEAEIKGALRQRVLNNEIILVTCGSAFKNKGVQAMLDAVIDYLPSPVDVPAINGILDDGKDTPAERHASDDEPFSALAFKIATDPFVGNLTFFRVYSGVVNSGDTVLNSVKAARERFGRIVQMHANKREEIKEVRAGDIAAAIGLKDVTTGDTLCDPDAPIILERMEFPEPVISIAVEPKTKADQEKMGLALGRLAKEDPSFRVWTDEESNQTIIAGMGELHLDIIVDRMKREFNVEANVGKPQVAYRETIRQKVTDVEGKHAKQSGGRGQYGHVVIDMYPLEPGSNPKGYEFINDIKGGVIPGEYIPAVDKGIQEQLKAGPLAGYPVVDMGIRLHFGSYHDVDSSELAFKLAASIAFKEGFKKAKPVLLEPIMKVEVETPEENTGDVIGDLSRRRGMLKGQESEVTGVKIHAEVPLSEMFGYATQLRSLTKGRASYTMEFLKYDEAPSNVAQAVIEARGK
T2 sequence (P0A6M8 2-704): as the sequence (P0A6M8 2-704, one chain of several) above

Q: How did the “nitrocellulose filtration of ribosome-bound EF-G•[3H]-GDPNP” value [1] turn out when Nc1nc2c(ncn2[C@@H]2O[C@H](COP(=O)(O)OP(=O)(O)NP(=O)(O)O)[C@@H](O)[C@H]2O)c(=O)[nH]1 [GDPNP] was run?
A: EF-G, bound to either type of ribosome, had much higher affinity for GDPNP than for GDP

Q: For Nc1nc2c(ncn2[C@@H]2O[C@H](COP(=O)(O)OP(=O)(O)O)[C@@H](O)[C@H]2O)c(=O)[nH]1 [GDP], which Kd [2] is on record?
A: ~9 µM

Q: And the IC50 [3]?
A: 250 µM

Q: Nc1nc2c(ncn2[C@@H]2O[C@H](COP(=O)(O)OP(=O)(O)OP(=O)(O)O)[C@@H](O)[C@H]2O)c(=O)[nH]1 [GTP] was tested. Which Kd [4] did it give?
A: > 600 µM
